Melting point data for 87 compounds are collected here from a melting point compilation (Tetko et al.; mined from patent text by program, amines drawn as free bases though some values may be those of a salt).

Bounds are passed on as bounds.

Regarding `COCCOc1cc2ncnc(Cl)c2cc1OCCOC`, the melting point lay within 108 to 109 °C.
In turn, `CC(=O)N1CCc2ccc(/C=C/CCN3CCC(c4ccc(Cl)cc4)CC3)cc2CC1` had a melting point of 153 to 155 °C.
`Nc1cccc2c1CN(C1CCC(=O)NC1=O)C2=O` (configuration not stated): the melting point lay within 250 to 252 °C.
In the case of `CS(=O)(=O)NC(CCCCCc1ccc(Cl)cc1)C(=O)O` (configuration not stated) it was 73 to 75 °C; in that of `NNC(=O)C1=Nc2cccc3c(=O)[nH]nc(c23)N1`, greater than 300 °C; in that of `C=CCOc1ccc(S(=O)(=O)Nc2ccc(Cl)cc2C(=O)c2ccccc2Cl)cc1`, 96 to 97 °C.
In the case of `COc1cc(COc2nn(-c3ccccc3)cc2/C=C/c2nc(N3CCCCC3)sc2C)ccc1OCc1nc(-c2ccc(CC(=O)O)cc2)oc1C` it was 146 to 148 °C; in that of `COC(=O)[C@H](CC(C)C)NC(=O)c1ccc2c(c1)Nc1ccccc1S2`, 160 to 161 °C; in that of `Cn1nc(N)c2c(-c3ccccc3)cc(N3CCOCC3)nc21`, 149 to 152 °C.
As to `COc1cc(Nc2c(C#N)cnc3cc(I)sc23)c(Cl)cc1Cl`, the melting point was in the range of 233 to 234 °C.
In the case of `Cc1nc(NC(=O)NS(=O)(=O)c2cccc3c2nnn3C)nc2c1CCO2` it was 234 to 240 °C; in that of `COc1cc2c(cc1Cl)CCN(C)CC2c1ccc(I)cc1` (configuration not stated), 130 to 132 °C.
As for `CN(C(=N)Nc1ncccc1OCc1c(F)cccc1F)c1ccc(Cl)cc1`, the melting point fell in the range of 100 to 102 °C.
In the case of `CCOC(=O)C1=C(C)NC(CSCCC#N)=C(C(=O)OCC)C1c1cccc([N+](=O)[O-])c1` (configuration not stated) it was 102 to 104 °C; in that of `C=C(CC)c1cn(-c2c(Cl)cc(C(F)(F)F)cc2Cl)nc1C#N`, 104 to 105 °C; in that of `CCN(C(=O)c1cnc(N2CC(C)(C)NC2=O)nc1N)c1cccc(C(F)(F)F)c1`, 186 to 187 °C.
In the case of `Cc1cc(-c2cc(O)c(SCc3ccccc3)c(=O)o2)cc(C)c1O` it was 174 to 176 °C; in that of `COC(=O)COc1cc2c(c3c1c(C(=O)C(N)=O)c(C)n3Cc1ccc(F)cc1)CCC2`, 134 to 136 °C; in that of `CC(C)(C)OC(=O)c1nc(-c2ccccc2)[nH]c1-c1ccncc1`, 205 to 206 °C.
Under `CCCNC(=S)c1ccc2c(c1)N(C(C)CN(CC)CC)c1ccc(Cl)cc1S2` (racemic) stands 130 °C; under `Cc1cc2c(c(C)c1NC(=O)OC(C)(C)C)CC(C)(C)O2`, 121 to 123 °C; under `Cc1c(Cl)cccc1N1C(=O)CN(c2ccccc2)C1=S`, 154 to 156 °C.
`Cc1nnc(-c2[nH]c3ccccc3c2Cl)o1` yielded a melting point of 267 to 268 °C.
Under `CCOC(=O)c1c(C)nc(S)c(N)c1NCCCN(C)C` stands 110 to 112 °C; under `CC(O)C(C)Sc1sc(-c2cc[nH]n2)c2c1C(=O)CC(C)(C)C2` (configuration not stated), 171 to 174 °C.
Under `CN(Cc1ccccc1C(F)(F)F)C1CCN(c2ccc(OC[C@@]3(C)Cn4cc([N+](=O)[O-])nc4O3)cc2)CC1` stands 190 °C.
Under `COc1cccc2c1CCC(COS(=O)(=O)c1ccc(C)cc1)C2` (configuration not stated) stands 81 to 82 °C; under `CC(C)(C)c1cc(CCCOc2ccccc2NC(=O)NC2CCN(Cc3ccccc3)CC2)cc(C(C)(C)C)c1O`, 148 to 149 °C.
On to `CC(=O)OCC(=O)Nc1cccc(N2CCCCC2)c1C#N`, for which the melting point lay within 90 to 92 °C.
Under `COc1cc(-c2ncn(C)c2-c2ccc(C(F)(F)F)cc2)cc(OC)c1OC` stands 168 °C; under `NC(=O)C(O)c1c(Cl)cccc1Cl` (configuration not stated), 155 to 158 °C; under `Cn1c(=O)c2cc([N+](=O)[O-])cnc2n(C)c1=O`, 203 to 205 °C.
In the case of `CCCCOc1c2c(nc3c1cnn3CC)CCc1ccccc1C2=O` it was 113 to 115 °C.
Under `COC(=O)C1=C(C)NC(C)=C(C(=O)OCCCCl)C1c1cccc([N+](=O)[O-])c1` (configuration not stated) stands 125 to 130 °C; under `Nc1sc2c(c1C(=O)c1ccc(Cl)cc1)CCN(CCc1ccccc1)C2`, 148 to 150 °C; under `CNC(=O)C1CN(CC(=O)Nc2c(C)cc(C)cc2C)CCN1CCCC(c1ccc(F)cc1)c1ccc(F)cc1` (configuration not stated), 82.3 °C.
On to `CC(=O)OCC(=O)C1CCC2C3CCC4CC(O)C(N5CCOC(C)(C)C5)CC4(C)C3CCC12C` (configuration not stated), for which the melting point fell in the range of 174 to 175 °C.
`CC(C)(C)OC(=O)N1C(=O)O[C@@H](c2ccc(F)cc2)[C@H]1Cc1ccc(C(F)(F)F)o1` (racemic) came in with a melting point of 134 to 135 °C.
In the case of `Cc1cccc(-c2ccccc2C(=O)NCCc2ccccc2)c1N1C(=O)c2ccccc2C1=O` it was 156 °C.
Under `COc1ccccc1NC(=O)Nc1nc(Nc2ccccc2-c2ccccc2)nc(N(CCC(=O)O)Cc2ccc(F)c(F)c2)n1` stands 115 to 120 °C; under `Cc1cc(Nc2ccccc2C(=O)O)n(Cc2cccnc2)n1`, 180 to 183 °C; under `COc1ccc2c(c1)C(=O)CC(C)(C)O2`, 71 to 73 °C.
Turning to `O=C(NCCOCc1cccc(Cl)c1)c1c(Cl)cccc1Cl`, the melting point is 70 to 72 °C.
Under `CC1(c2cc(-c3ccc(F)cc3F)cc(C(=O)Nc3ccc(S(=O)(=O)C(F)(F)F)cc3Cl)c2O)CCCCC1` stands 114 to 115 °C; under `CC(Oc1ccc(COc2ccc(Cl)cc2)cc1)C(=O)O` (configuration not stated), 156 to 158 °C; under `Cc1ccc(CC(C(=O)c2ccccc2)N2CCCCC2)cc1` (configuration not stated), 71 to 72 °C.
In the case of `CC(C)c1csc(/C=C/c2cccc(NC(=O)Cc3ccccc3CC(=O)O)c2)n1` it was 144 to 146 °C; in that of `CCOC(=O)c1nnc2ccc(NC(C)C)cc2c1O`, 170 to 171 °C; in that of `COc1cc2c(cc1Cl)C(=O)CC(C)O2` (configuration not stated), 96 to 100 °C.
Under `CC(C)(C)OC(=O)Nc1ccc(O)c(C(=O)O)c1` stands greater than 270 °C; under `CC(C)(C)OC(=O)N1C(=O)CCC1c1ccc(F)cc1` (configuration not stated), 117 °C; under `CCOC(=O)c1sc2cc(Cn3ccnc3)ccc2c1Cl`, 127 to 129 °C.
On to `CC1=NC2(O)c3cc(-c4ccc(C(F)(F)F)cc4)ccc3CC2S1` (configuration not stated), for which the melting point lay in the range of 213 to 217 °C.
In the case of `CONC(=O)c1ccccc1S(=O)(=O)NC(=O)Nc1nc(C)cc(C)n1` it was 218 °C; in that of `Cc1cc(NC(=O)Nc2cccc3c2C2CCCCN2C3=O)no1` (configuration not stated), 156 °C.
In the case of `COc1cc(CC(C)NC(=O)c2ccccc2)cc2c1OC(C)(C)C2` (configuration not stated) it was 141 to 142 °C; in that of `O=C(O)c1cc(S(=O)(=O)Nc2ccc(Cl)cc2Cl)ccc1Cl`, 174 °C; in that of `OC1(c2nccc3ccccc23)CCNCC1`, 138 to 140 °C.
For `Cc1ccc(C)c(SCCC(=O)O)c1`, the melting point was 100 to 102 °C.
In the case of `COC(=O)c1cc2ccoc2s1` it was 86 to 88 °C; in that of `O=[N+]([O-])c1ccc(OCc2ccccc2)cc1OCc1ccccc1`, 101 to 103 °C.
Under `COc1ccc(CCNC(=O)Nc2ccccc2CCc2cc(C(C)(C)C)c(O)c(C(C)(C)C)c2)cc1OC` stands 158 to 160 °C; under `CC(C)C[C@H](NC(=O)[C@H](Cc1ccccc1)NC(=O)C1CCCC1)C(=O)O`, 148 to 151 °C.
In the case of `CC(=O)c1sc(N2CCN(CCC3CC3)C2=O)nc1C` it was 82 to 83 °C; in that of `O=C(Nc1ccccc1)OCc1ccccc1`, 92 to 96 °C; in that of `O=C(Nc1c(C(O)(C(F)(F)F)C(F)(F)F)ccc2ccccc12)c1ccc(Cl)c(Cl)c1`, 174 to 175 °C.
`C#CCC(C)C(=O)N1c2ccccc2C(=O)Nc2cccnc21` (configuration not stated) came in with a melting point of 202 to 204 °C.
Under `N#Cc1c(F)cc(OCc2ccncc2)cc1OC(C(=O)O)c1ccccc1Cl` (racemic) stands 135 to 139 °C; under `CC(C)(C)OC(=O)CC[C@H](NC(=O)c1ccc(N(CCCl)CCCl)cc1)C(=O)OC(C)(C)C`, 114 to 116 °C; under `O=C(c1ccccc1F)C1CCN(CCc2c[nH]c3ccccc23)CC1`, 106 to 108 °C.
In the case of `CC1(C)CC(=O)c2c(S(C)(=O)=O)sc(C(=O)N3CCCC3)c2C1` it was 161 °C; in that of `COC(=O)CCCc1cc2nc(Cl)ccc2n1S(=O)(=O)c1cc(OC)ccc1OC`, 102 °C; in that of `COc1nc(OC)nc(-n2c(C(F)(F)F)nc3cc(C)ccc32)n1`, 137 to 140 °C.
Under `CC(C)(CO)NS(=O)(=O)c1cccc(-c2cc(-c3nc(-c4ccc(C(F)(F)F)cc4)cc(C(F)(F)F)n3)ccn2)c1` stands 221 °C; under `C#CC1(O)CCC2C3CC(C)C4=CC(=O)CCC4C3CCC21CC` (configuration not stated), 148 to 151 °C.
The compound `O=C(C=Cc1cccc(S(=O)(=O)Nc2cccc3ccccc23)c1)NO` showed a melting point of 180 °C.
In the case of `COCc1nc(C(C)(C)O)c(C(=O)OC)[nH]1` it was 94.5 to 96 °C; in that of `O=C(O)c1ccc(OCCCc2ccc(O)c(O)c2)cc1`, 180 to 185 °C; in that of `Cn1ncnc1COc1nn2c(-c3ccccc3F)nnc2cc1-c1cccs1`, 189 to 190 °C.
Under `CCOc1ccc2c(c1)n(-c1ccccn1)c(=O)n2S(=O)(=O)c1ccc([N+](=O)[O-])cc1OC` stands 175 °C; under `N#CC(=NO)c1ccc(Cl)cc1Cl`, 151 °C; under `NC(=O)c1cc([N+](=O)[O-])ccc1C=Cc1ccccc1`, 270 °C.
Under `CCOC(=O)c1ccc(-c2nc3ccccc3s2)cc1` stands 132 to 134 °C.
Regarding `CC(C)(C)[Si](C)(C)OC(CCCOC1CCCCO1)COc1ccc2c(=O)cc(-c3ccccc3)oc2c1` (configuration not stated), the melting point was 138 to 145 °C.
In the case of `COC(=O)C(OC)c1ccc2oc(-c3ccc(Cl)cc3)nc2c1` (configuration not stated) it was 100 to 105 °C; in that of `CN1CC(=O)Nc2ccccc21`, 132 °C; in that of `COC(=O)C=Cc1cnc(Cl)cc1NCc1ccc(OC)c(Cl)c1`, 170 to 171 °C.

As usually defined, the melting point is the temperature of the solid-liquid transition.
